Measurements as given in patent publication US9499550B2 (BRISTOL-MYERS SQUIBB COMPANY, priority 2012, dated 2016).
Where two headings read alike, the source gives them in different places.

Assays:
[1] = tested on: HCV genotype 1a (H77 strain) replicon in HUH-7 cells; experiment: HCV replicon luciferase reporter assay, genotype 1a; assay type: cell-based; conditions: Hepatitis C virus, Huh-7, 72 h, HCV genotype 1a replicon luciferase, 3 days incubation
How it was run: (§1)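 Replicon inhibition for both genotypes was measured as Renilla luciferase signal (EnduRen, 7.5 μM final, 2 h) after 3-day, 37° C exposure of replicon-bearing HUH-7 cells in 4% FCS DMEM, 0.5% DMSO. The 1b construct carries S1179I; the 1a H77 construct carries P1496L and S2204I. Twenty-point, 3-fold dilutions were fitted four-parametrically for EC50, and CC50 was taken from multiplexed Cell Titer-Blue.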

[2] = tested on: HCV genotype 1b (Con1) replicon in HUH-7 cells; experiment: HCV replicon luciferase reporter assay, genotype 1b; assay type: cell-based; conditions: Hepatitis C virus, Huh-7, 72 h, HCV genotype 1b replicon luciferase, 3 days incubation
How it was run: as §1

Row | SMILES | EC50 ([1]; read-out: LE_1a (EC50, range)) [nM] | EC50 ([2]; read-out: LE_1b (EC50, range)) [nM] | EC50 ([1]; read-out: LE_1a (EC50)) [nM] | EC50 ([2]; read-out: LE_1b (EC50)) [nM]
1 | CCOc1nnc(O[C@@H]2C[C@H]3C(=O)N[C@]4(C(=O)NS(=O)(=O)C5(C)CC5)C[C@H]4/C=C\CC[C@@H](C)C[C@@H](CC)[C@H](NC(=O)OC(C)(C)C(F)(F)F)C(=O)N3C2)c2ccccc12 [Compound 5049, 1,1,1-trifluoro-2-methylpropan-2-yl((2R,6S,7R,9R,13aS,14aR,16aS,Z)-2-((4-ethoxyphthalazin-1-yl)oxy)-7-ethyl-9-methyl-14a-(((1-methylcyclopropyl)sulfonyl)carbamoyl)-5,16-dioxo-1,2,3,5,6,7,8,9,10,11,13a,14,14a,15,16,16a-hexadecahydrocyclopropa[e]pyrrolo[1,2-a][1,4]diazacyclopentadecin-6-yl)carbamate] | < 5.46 | < 5.46 | – | –
2 | CCOc1nnc(O[C@@H]2C[C@H]3C(=O)N[C@]4(C(=O)NS(=O)(=O)C5(C)CC5)C[C@H]4/C=C\CC[C@H](C)C[C@@H](CC)[C@H](NC(=O)OC(C)(C)C(C)(F)F)C(=O)N3C2)c2ccccc12 [Compound 5050, 3,3-difluoro-2-methylbutan-2-yl((2R,6S,7R,9S,13aS,14aR,16aS,Z)-2-((4-ethoxyphthalazin-1-yl)oxy)-7-ethyl-9-methyl-14a-(((1-methylcyclopropyl)sulfonyl)carbamoyl)-5,16-dioxo-1,2,3,5,6,7,8,9,10,11,13a,14,14a,15,16,16a-hexadecahydrocyclopropa[e]pyrrolo[1,2-a][1,4]diazacyclopentadecin-6-yl)carbamate] | 4.82 to 103 | 4.82 to 103 | – | –
3 | CCOc1nnc(O[C@@H]2C[C@H]3C(=O)N[C@]4(C(=O)NS(=O)(=O)C5(C)CC5)C[C@H]4/C=C\CC[C@@H](C)C[C@@H](CC)[C@H](NC(=O)OC(C)(C)C(C)(F)F)C(=O)N3C2)c2ccccc12 [Compound 5051, 3,3-difluoro-2-methylbutan-2-yl((2R,6S,7R,9R,13aS,14aR,16aS,Z)-2-((4-ethoxyphthalazin-1-yl)oxy)-7-ethyl-9-methyl-14a-(((1-methylcyclopropyl)sulfonyl)carbamoyl)-5,16-dioxo-1,2,3,5,6,7,8,9,10,11,13a,14,14a,15,16,16a-hexadecahydrocyclopropa[e]pyrrolo[1,2-a][1,4]diazacyclopentadecin-6-yl)carbamate] | < 5.46 | < 5.46 | – | –
4 | CCn1nc(O[C@@H]2C[C@H]3C(=O)N[C@]4(C(=O)NS(=O)(=O)C5(C)CC5)C[C@H]4/C=C\CC[C@H](C)C[C@@H](C)[C@H](NC(=O)OC(C)(C)C(F)(F)F)C(=O)N3C2)c2ccccc2c1=O [Compound 5052, 1,1,1-trifluoro-2-methylpropan-2-yl((2R,6S,7R,9S,13aS,14aR,16aS,Z)-2-((3-ethyl-4-oxo-3,4-dihydrophthalazin-1-yl)oxy)-7,9-dimethyl-14a-(((1-methylcyclopropyl)sulfonyl)carbamoyl)-5,16-dioxo-1,2,3,5,6,7,8,9,10,11,13a,14,14a,15,16,16a-hexadecahydrocyclopropa[e]pyrrolo[1,2-a][1,4]diazacyclopentadecin-6-yl)carbamate] | > 87.4 | 4.82 to 103 | 330 | 76.2
5 | CCn1nc(O[C@@H]2C[C@H]3C(=O)N[C@]4(C(=O)NS(=O)(=O)C5(C)CC5)C[C@H]4/C=C\CC[C@@H](C)C[C@@H](C)[C@H](NC(=O)OC(C)(C)C(F)(F)F)C(=O)N3C2)c2ccccc2c1=O [Compound 5053, 1,1,1-trifluoro-2-methylpropan-2-yl((2R,6S,7R,9R,13aS,14aR,16aS,Z)-2-((3-ethyl-4-oxo-3,4-dihydrophthalazin-1-yl)oxy)-7,9-dimethyl-14a-(((1-methylcyclopropyl)sulfonyl)carbamoyl)-5,16-dioxo-1,2,3,5,6,7,8,9,10,11,13a,14,14a,15,16,16a-hexadecahydrocyclopropa[e]pyrrolo[1,2-a][1,4]diazacyclopentadecin-6-yl)carbamate] | 4.82 to 103 | < 5.46 | – | –
6 | [2H]C([2H])([2H])C(OC(=O)N[C@@H]1C(=O)N2C[C@H](Oc3nn(CC)c(=O)c4ccccc34)C[C@H]2C(=O)N[C@]2(C(=O)NS(=O)(=O)C3(C)CC3)C[C@H]2/C=C\CC[C@H](C)C[C@H]1C)(C([2H])([2H])[2H])C(F)(F)F [Compound 5054] | > 87.4 | > 87.4 | – | –
7 | [2H]C([2H])([2H])C(OC(=O)N[C@@H]1C(=O)N2C[C@H](Oc3nn(CC)c(=O)c4ccccc34)C[C@H]2C(=O)N[C@]2(C(=O)NS(=O)(=O)C3(C)CC3)C[C@H]2/C=C\CC[C@@H](C)C[C@H]1C)(C([2H])([2H])[2H])C(F)(F)F [Compound 5055] | 4.82 to 103 | < 5.46 | – | –
8 | CCn1nc(O[C@@H]2C[C@H]3C(=O)N[C@]4(C(=O)NS(=O)(=O)C5(C)CC5)C[C@H]4/C=C\CC[C@H](C)C[C@@H](C)[C@H](NC(=O)O[C@@H]4C[C@@H]5C[C@@H]5C4)C(=O)N3C2)c2ccccc2c1=O [Compound 5056, (1R,3r,5S)-bicyclo[3.1.0]hexan-3-yl((2R,6S,7R,9S,13aS,14aR,16aS,Z)-2-((3-ethyl-4-oxo-3,4-dihydrophthalazin-1-yl)oxy)-7,9-dimethyl-14a-(((1-methylcyclopropyl)sulfonyl)carbamoyl)-5,16-dioxo-1,2,3,5,6,7,8,9,10,11,13a,14,14a,15,16,16a-hexadecahydrocyclopropa[e]pyrrolo[1,2-a][1,4]diazacyclopentadecin-6-yl)carbamate] | > 87.4 | 4.82 to 103 | 256 | 61
9 | CCn1nc(O[C@@H]2C[C@H]3C(=O)N[C@]4(C(=O)NS(=O)(=O)C5(C)CC5)C[C@H]4/C=C\CC[C@@H](C)C[C@@H](C)[C@H](NC(=O)O[C@@H]4C[C@@H]5C[C@@H]5C4)C(=O)N3C2)c2ccccc2c1=O [Compound 5057, (1R,3r,5S)-bicyclo[3.1.0]hexan-3-yl((2R,6S,7R,9R,13aS,14aR,16aS,Z)-2-((3-ethyl-4-oxo-3,4-dihydrophthalazin-1-yl)oxy)-7,9-dimethyl-14a-(((1-methylcyclopropyl)sulfonyl)carbamoyl)-5,16-dioxo-1,2,3,5,6,7,8,9,10,11,13a,14,14a,15,16,16a-hexadecahydrocyclopropa[e]pyrrolo[1,2-a][1,4]diazacyclopentadecin-6-yl)carbamate] | < 5.46 | < 5.46 | – | –
10 | CCn1nc(O[C@@H]2C[C@H]3C(=O)N[C@]4(C(=O)NS(=O)(=O)C5(C)CC5)C[C@H]4/C=C\CC[C@H](C)C[C@@H](C)[C@H](NC(=O)NC(C)(C)C)C(=O)N3C2)c2ccccc2c1=O [Compound 5058, (2R,6S,7R,9S,13aS,14aR,16aS,Z)-6-(3-(tert-butyl)ureido)-2-((3-ethyl-4-oxo-3,4-dihydrophthalazin-1-yl)oxy)-7,9-dimethyl-N-((1-methylcyclopropyl)sulfonyl)-5,16-dioxo-1,2,3,5,6,7,8,9,10,11,13a,14,14a,15,16,16a-hexadecahydrocyclopropa[e]pyrrolo[1,2-a][1,4]diazacyclopentadecine-14a-carboxamide] | > 87.4 | > 87.4 | – | –
11 | CCn1nc(O[C@@H]2C[C@H]3C(=O)N[C@]4(C(=O)NS(=O)(=O)C5(C)CC5)C[C@H]4/C=C\CC[C@@H](C)C[C@@H](C)[C@H](NC(=O)NC(C)(C)C)C(=O)N3C2)c2ccccc2c1=O [Compound 5059, (2R,6S,7R,9R,13aS,14aR,16aS,Z)-6-(3-(tert-butyl)ureido)-2-((3-ethyl-4-oxo-3,4-dihydrophthalazin-1-yl)oxy)-7,9-dimethyl-N-((1-methylcyclopropyl)sulfonyl)-5,16-dioxo-1,2,3,5,6,7,8,9,10,11,13a,14,14a,15,16,16a-hexadecahydrocyclopropa[e]pyrrolo[1,2-a][1,4]diazacyclopentadecine-14a-carboxamide] | 4.82 to 103 | 4.82 to 103 | – | –
12 | CCn1nc(O[C@@H]2C[C@H]3C(=O)N[C@]4(C(=O)NS(=O)(=O)C5(C)CC5)C[C@H]4/C=C\CC[C@H](C)C[C@@H](C)[C@H](NC(=O)c4ccc(N(C)C)cc4)C(=O)N3C2)c2ccccc2c1=O [Compound 5060, (2R,6S,7R,9S,13aS,14aR,16aS,Z)-6-(4-(dimethylamino)benzamido)-2-((3-ethyl-4-oxo-3,4-dihydrophthalazin-1-yl)oxy)-7,9-dimethyl-N-((1-methylcyclopropyl)sulfonyl)-5,16-dioxo-1,2,3,5,6,7,8,9,10,11,13a,14,14a,15,16,16a-hexadecahydrocyclopropa[e]pyrrolo[1,2-a][1,4]diazacyclopentadecine-14a-carboxamide] | > 87.4 | > 87.4 | ≥ 1000 | 950
13 | CCn1nc(O[C@@H]2C[C@H]3C(=O)N[C@]4(C(=O)NS(=O)(=O)C5(C)CC5)C[C@H]4/C=C\CC[C@@H](C)C[C@@H](C)[C@H](NC(=O)c4ccc(N(C)C)cc4)C(=O)N3C2)c2ccccc2c1=O [Compound 5061, (2R,6S,7R,9R,13aS,14aR,16aS,Z)-6-(4-(dimethylamino)benzamido)-2-((3-ethyl-4-oxo-3,4-dihydrophthalazin-1-yl)oxy)-7,9-dimethyl-N-((1-methylcyclopropyl)sulfonyl)-5,16-dioxo-1,2,3,5,6,7,8,9,10,11,13a,14,14a,15,16,16a-hexadecahydrocyclopropa[e]pyrrolo[1,2-a][1,4]diazacyclopentadecine-14a-carboxamide] | 4.82 to 103 | 4.82 to 103 | – | –
